Laboratory results taken from patent US9828333B2, “Compounds for the treatment of influenza” (CHRISTIAN-ALBRECHTS-UNIVERSITAT ZU KIEL, priority 2011, dated 2017).
In brackets after ≈: the same amount, converted by molar mass. Several values for one entry are separate records, joined by “and”; a condition that tells them apart may be missing. Identical values can stand only once. Counter-ions that a name gives are not always drawn. Like-named read-outs stand apart in the source and are kept apart here.

Key:
albumin = albumin (Homo sapiens, UniProt P02768); assay type: in vitro ADME; conditions: 4% albumin solution, average of three concentrations (10, 25, 50 μM)
Procedure: 3. Determination of Protein Binding of the Amidine Effective Form (3) as Well as of Prodrugs Thereof (2, 4) and of the Guanidine Effective Form (9) as Well as of Prodrugs Thereof (6, 10)
The plasma protein binding was carried out in three different concentrations (10, 25, and 50 μM). A 4% albumin solution was used as protein solutions. In each case, 50 μl of a 10-fold concentrated substance solution were pipetted in 450 μl of the protein solution. The incubation was carried out for 15 minutes in the shaking water bath at 37° C. Subsequently, the samples were transferred in ultra-filtration units (Vivaspin 500, 10 kDa cut-off) and centrifuged for 15 min at 10.000 rpm. The filtrate was analyzed by HPLC. In addition, a control was run for each concentration, which was not treated with protein and not centrifuged.

in vivo = conditions: Sprague Dawley, rat, in vivo, po, 50 mg/kg
Procedure: Sprague Dawley (SD) rats were supplied for habitation 10 days before the start of the experiment, weighing ˜300-350 g and kept in an air conditioned room with a constant temperature of 20° C. and a humidity of 50%. In this room there was a day-night rhythm of twelve hours. The dark phase began daily at 18 o'clock and turned over to the light phase at 6 clock. The rats were kept over the acclimatization period in standard cages of the size 3 (length: 42 cm, width 26 cm, height: 15 cm) and transferred three days before commencement of an experiment into a special experimental room, placed in the identical environmental conditions. They received a maintenance diet (maintenance diet for rats and mice; No. 1320; Altromin) and tap water ad libitum.
A catheter was implanted in the vein as well as in the arteria femoralis of rats receiving an i.v. administration. Rats receiving only oral administration of substances received a […] catheter only.
The catheterized animals were kept after surgery for a day in the experimental room and individually in their experimental cages. The application of the test compounds was carried out on the second day after the operation. On the experimental day, the rats were weighed one hour prior to the test and the arterial catheter was flushed with 300 μl of heparin solution. Subsequently, the i.v. or oral administration of the compounds was carried out.
The oral administrations were performed as a suspension or solution made with gum arabic (10% w/v) by gavage.
The oral administrations were made as suspension or solution with gum arabic (10% w/v) by gavage.
After i.v. administration, plasma samples were taken at 5, 10, 20, 45, 90, 150, 240 and 360 min, respectively after oral administration after 30, 60, 90, 120, 180, 240 and 360 min. To this, in each case 300 μl of whole blood were taken using an insulin syringe and transferred into EDTA-coated Microvettes CB 300 (Sarstedt, Nümbrecht). After each withdrawal it was rinsed with 100 μl 0.9% saline or every 60 min with heparin solution (250 IU/ml). The blood sample was shaken briefly and put until centrifugation (4° C.; 14000 U/min; 10 min) on ice. Subsequently, the samples were frozen at −80° C.
The plasma samples were processed and analyzed by HPLC. Therefor, the plasma samples were thawed at room temperature. In each case, 80 μl methanol (+0.2% TFA) were prepared and subsequently 80 μl of the plasma samples were pipetted into. The samples were shaken for 45 min to precipitate plasma proteins. The samples were frozen at −80° C., thawed and shaken for another 15 min. The samples were centrifuged for 15 min at 13.000 RPM and the supernatant was transferred into HPLC vials. In each case 50 μl were used for the determinations by LC/MS.
The animal studies were evaluated using the following LC/MS method.

physchem = assay type: physicochemical; conditions: thermodynamic from solid; for solubility: read-out: maximum soluble concentration
Procedure: 2. Solubility Assays of the Compounds Tested
Determining the Solubility at Different pH Values:
Therefor, a few mg of the compounds were weighed and mixed with the volume of 50 mM KH2PO4 buffer of respective pH value for a 50 mM solution. […] Subsequently, the undissolved portion was removed by centrifugation at 10.000 rpm for 15 min, and the concentration in the supernatant was determined by HPLC.

[1] = system: influenza A virus A/Jena/5258/2009; assay: microbe, parasite or virus in culture; assay type: cell-based, influenza A virus H1N1; conditions: read-out: 50% inhibitory concentration, A/Jena/5258/2009
[2] = system: influenza A virus A/342/2009; assay: microbe, parasite or virus in culture; assay type: cell-based, influenza A virus H1N1; conditions: read-out: 50% inhibitory concentration, A/342/2009
[3] = system: influenza A virus A/Jena/5258/2009 (pandemic H1N1; oseltamivir-sensitive); assay type: cell-based

Sequence of albumin (P02768 25-609): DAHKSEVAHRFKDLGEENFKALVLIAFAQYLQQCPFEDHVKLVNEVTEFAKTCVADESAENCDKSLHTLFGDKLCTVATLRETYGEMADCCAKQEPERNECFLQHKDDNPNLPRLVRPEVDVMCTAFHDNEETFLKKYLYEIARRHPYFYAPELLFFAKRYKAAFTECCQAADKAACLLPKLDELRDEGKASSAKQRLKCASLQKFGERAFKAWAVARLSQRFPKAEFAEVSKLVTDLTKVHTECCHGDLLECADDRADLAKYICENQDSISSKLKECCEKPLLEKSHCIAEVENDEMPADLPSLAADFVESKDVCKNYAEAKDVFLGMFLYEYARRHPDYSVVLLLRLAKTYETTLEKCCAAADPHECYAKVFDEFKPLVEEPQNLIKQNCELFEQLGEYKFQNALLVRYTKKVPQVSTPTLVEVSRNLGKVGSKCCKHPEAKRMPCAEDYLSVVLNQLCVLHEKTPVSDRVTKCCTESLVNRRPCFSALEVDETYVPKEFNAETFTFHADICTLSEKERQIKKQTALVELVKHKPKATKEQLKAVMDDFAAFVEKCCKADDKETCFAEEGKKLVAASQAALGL

Structure (SMILES) | Protein binding (albumin) | Bioavailability (in vivo) | Plasma level of derivative 3 (Conc.) after oral administration of the labelled derivative (in vivo; 0 min) | Plasma level of derivative 3 (Conc.) after oral administration of the labelled derivative (in vivo; 30 min) | Plasma level of derivative 3 (Conc.) after oral administration of the labelled derivative (in vivo; 60 min) | Plasma level of derivative 3 (Conc.) after oral administration of the labelled derivative (in vivo; 90 min) | Plasma level of derivative 3 (Conc.) after oral administration of the labelled derivative (in vivo; 120 min) | Plasma level of derivative 3 (Conc.) after oral administration of the labelled derivative (in vivo; 180 min) | Plasma level of derivative 3 (Conc.) after oral administration of the labelled derivative (in vivo; 240 min) | Plasma level of derivative 3 (Conc.) after oral administration of the labelled derivative (in vivo; 360 min) | solubility at 30 min (physchem; aqueous buffer) | solubility at 30 min (physchem; pH 2, aqueous buffer) | solubility at 30 min (physchem; pH 7.4, aqueous buffer) | solubility at 30 min (physchem; pH 9, aqueous buffer) | also measured
CCOC(=O)C1=C[C@@H](OC(CC)CC)[C@H](NC(C)=O)[C@@H](NC(C)=N)C1 [Compound 2, (3R,4R,5S)-4-acetamido-5-(N-acetimidamido)-3-(1-ethylpropoxy)cyclohex-1-en-1-carboxylic acid ethyl ester hydrobromide] | 34.8 ± 8.8% | 0.8% | 0 nM | 430 nM | 350 nM | 330 nM | 290 nM | 70 nM | 10 nM | 0 nM | > 50 mM | > 17700 µg/mL and > 50000 µM | > 17700 µg/mL and > 50000 µM | > 17700 µg/mL and > 50000 µM | 
CCOC(=O)C1=C[C@@H](OC(CC)CC)[C@H](NC(C)=O)[C@@H](NC(=N)N)C1 [Compound 10] | 30.1 ± 2.3% | 1.1% |  |  |  |  |  |  |  |  | > 50 mM | > 23400 µg/mL and > 50000 µM | > 23400 µg/mL and > 50000 µM | > 23400 µg/mL and > 50000 µM | 
CC(=O)N[C@H]1[C@H]([C@H](O)[C@H](O)CO)OC(C(=O)O)=C[C@@H]1N=C(N)N [Zanamivir, reference compound] |  |  |  |  |  |  |  |  |  |  |  |  |  |  | IC50 [1]: > 19500 nM; IC50 [2]: 600 nM; 90% inhibitory concentration, A/Jena/5258/2009 [3]: 0.125 (0.219) μM; 95% inhibitory concentration (values in parentheses), A/Jena/5258/2009 [3]: 0.125 (0.219) μM
CCOC(=O)C1=C[C@@H](OC(CC)CC)[C@H](NC(C)=O)[C@@H](N/C(C)=N/O)C1 [Compound 4, (3R,4R,5S)-4-acetamido-5-[N—(N′-hydroxy)acetimidamido]-3-(1-ethylpropoxy)cyclohex-1-en-1-carboxylic acid ethyl ester] | 26.7 ± 2.5% |  | 0 nM | 6500 nM | 8980 nM | 8800 nM | 8100 nM | 6430 nM | 5340 nM | 2190 nM | > 20 mM | > 18500 µg/mL and > 50000 µM | 8600 ± 400 µg/mL | 8600 ± 700 µg/mL | Plasma level of intermediary metabolite 11 (Conc.) after oral administration of derivative 4 (in vivo; 0 min): 0 nM; Plasma level of intermediary metabolite 11 (Conc.) after oral administration of derivative 4 (in vivo; 30 min): 7220 nM; Plasma level of intermediary metabolite 11 (Conc.) after oral administration of derivative 4 (in vivo; 60 min): 2680 nM; Plasma level of intermediary metabolite 11 (Conc.) after oral administration of derivative 4 (in vivo; 90 min): 2160 nM; Plasma level of intermediary metabolite 11 (Conc.) after oral administration of derivative 4 (in vivo; 120 min): 1960 nM; Plasma level of intermediary metabolite 11 (Conc.) after oral administration of derivative 4 (in vivo; 180 min): 850 nM; Plasma level of intermediary metabolite 11 (Conc.) after oral administration of derivative 4 (in vivo; 240 min): 490 nM; Plasma level of intermediary metabolite 11 (Conc.) after oral administration of derivative 4 (in vivo; 360 min): 130 nM; solubility (physchem; aqueous buffer, pH 7.4, 50 mM KH2PO4 buffer): 23.2 ± 1.2 mM (≈ 8570 µg/mL); solubility (physchem; aqueous buffer, pH 9.0, 50 mM KH2PO4 buffer): 23.3 ± 1.8 mM (≈ 8610 µg/mL)
CCOC(=O)C1=C[C@@H](OC(CC)CC)[C@H](NC(C)=O)[C@@H](NC(N)=NO)C1 [Compound 6, (3R,4R,5S)-4-acetamido-[N—(N′ hydroxy)guanidino]-3-(1-ethylpropoxy)cyclohex-1-en-1-carboxylic acid ethyl ester] | 37.5 ± 10.1% | 1.7% |  |  |  |  |  |  |  |  | > 50 mM | > 18500 µg/mL and > 50000 µM | > 18500 µg/mL and > 50000 µM | > 18500 µg/mL and > 50000 µM | Plasma level of derivative 9 (Conc.) after oral administration of the labelled derivative (in vivo; 0 min): 0 nM; Plasma level of intermediary metabolite 12 (Conc.) after oral administration of derivative 6 (in vivo; 0 min): 0 nM; Plasma level of derivative 9 (Conc.) after oral administration of the labelled derivative (in vivo; 30 min): 200 nM; Plasma level of intermediary metabolite 12 (Conc.) after oral administration of derivative 6 (in vivo; 30 min): 200 nM; Plasma level of derivative 9 (Conc.) after oral administration of the labelled derivative (in vivo; 60 min): 220 nM; Plasma level of intermediary metabolite 12 (Conc.) after oral administration of derivative 6 (in vivo; 60 min): 160 nM; Plasma level of derivative 9 (Conc.) after oral administration of the labelled derivative (in vivo; 90 min): 180 nM; Plasma level of intermediary metabolite 12 (Conc.) after oral administration of derivative 6 (in vivo; 90 min): 200 nM; Plasma level of derivative 9 (Conc.) after oral administration of the labelled derivative (in vivo; 120 min): 190 nM; Plasma level of intermediary metabolite 12 (Conc.) after oral administration of derivative 6 (in vivo; 120 min): 190 nM; Plasma level of derivative 9 (Conc.) after oral administration of the labelled derivative (in vivo; 180 min): 210 nM; Plasma level of intermediary metabolite 12 (Conc.) after oral administration of derivative 6 (in vivo; 180 min): 80 nM; Plasma level of derivative 9 (Conc.) after oral administration of the labelled derivative (in vivo; 240 min): 180 nM; Plasma level of intermediary metabolite 12 (Conc.) after oral administration of derivative 6 (in vivo; 240 min): 10 nM; Plasma level of derivative 9 (Conc.) after oral administration of the labelled derivative (in vivo; 360 min): 50 nM; Plasma level of intermediary metabolite 12 (Conc.) after oral administration of derivative 6 (in vivo; 360 min): 0 nM
